From patent publication US12351789B2, “Method for producing cell laminate” (FUJIFILM CORPORATION, priority 2017, dated 2025)

System: cell laminate comprising a vascular endothelial cell layer and a smooth muscle cell layer on an HCM
Test: Evaluation of response to physiologically active substances (thrombin added to cell laminate, microscopy)
Format: cell-based
Settings: 37° C., 30 minutes, rat VEC/SMC-HCM insert
Description: (1) 0.1 mg (100 UN) of thrombin (#T7009-100UN, Sigma) was dissolved in 100 μL of physiological saline to prepare a thrombin solution having a concentration of 1000 U/mL. The thrombin solution was further diluted with HBSS(+) to prepare a 25 U/mL thrombin solution and a 100 U/mL thrombin solution.
(2) 900 μL of HBSS(+) was added to each of the wells of a 24-well plate.
(3) The inserts comprising the cell laminate were taken out of the medium, the medium was removed from the inner side of each insert using an aspirator, and the inserts were placed in the wells.
(4) 200 μL of either HBSS(+) (control), the 25 U/mL thrombin solution, or the 100 U/mL thrombin solution was added to the inner side of each of the inserts placed on the wells, and the inserts were incubated at 37° C. for 30 minutes.
(5) The state of the cell laminate was observed under a microscope. The microscopic image of the cell laminate is shown in FIG. 9 (superimposed image of red fluorescence: VE-cadherin and green fluorescence: α-smooth muscle actin).

Substance: thrombin
- cell contraction (25 U/mL or 100 U/mL thrombin solution, HBSS(+) control): cell contraction due to activation of actin stress fibers caused by the addition of thrombin was observed
- dependence of cell contraction on thrombin concentration (25 U/mL versus 100 U/mL thrombin solution): Higher thrombin concentrations caused stronger cell contractions
